Test results taken from EP0456514A1, “2-Fluoroneplanocin A and its production” (ASAHI KASEI KOGYO KABUSHIKI KAISHA, priority 1990, dated 1991).
≈ marks a conversion by molar mass, not a printed value.

Legend:
L5178Y cells = experiment: Growth inhibition activity against L5178Y cells; type: cell-based; details: for IC50: Mus musculus, L5178Y cells, incubated at 37 °C for 48 hours, cell number by Coulter counter
Protocol: (1) Growth inhibition activity against L5178Y cells:
A solution of each test compound is prepared by dissolving the compound in RRMI 1640 medium containing 10% bovine serum. A cell suspension of L5178Y cells, 1.1× 10⁴ cells/ml, each suspension having a volume of 1.8 ml, is added to each test tube. A solution ( 0.2 ml ) of the test compound hereinabove is added thereto and the medium is tightly sealed and incubated at 37 °C for 48 hours. After incubation, the numberof cells is measured using a Coulter counter and the growth ratio of the cells is determined.

Adenosine deaminase = target: T1, Adenosine deaminase (Bos taurus, UniProt P56658); experiment: Resistance to adenosine deaminase (remaining sample measured by HPLC); type: in vitro ADME, Calf; details: for Remaining ratio (%) 0 min. / remaining at 0.5 h, 500 µM: 0.5 mM test sample, adenosine deaminase, 0.05 M Tris-HCl buffer (pH 7.2), 25 °C; for remaining at 0.5 h, 500 µM: bovine, 30min., read-out: Remaining ratio (%) 30min.
T1 construct: Adenosine deaminase ( Calf inlestine, 400 U/ml glycerin, Boehringer 102091 ); purchased Boehringer 102091; host or cells: calf intestine (tissue-derived enzyme)
T1 sequence (P56658 1-363): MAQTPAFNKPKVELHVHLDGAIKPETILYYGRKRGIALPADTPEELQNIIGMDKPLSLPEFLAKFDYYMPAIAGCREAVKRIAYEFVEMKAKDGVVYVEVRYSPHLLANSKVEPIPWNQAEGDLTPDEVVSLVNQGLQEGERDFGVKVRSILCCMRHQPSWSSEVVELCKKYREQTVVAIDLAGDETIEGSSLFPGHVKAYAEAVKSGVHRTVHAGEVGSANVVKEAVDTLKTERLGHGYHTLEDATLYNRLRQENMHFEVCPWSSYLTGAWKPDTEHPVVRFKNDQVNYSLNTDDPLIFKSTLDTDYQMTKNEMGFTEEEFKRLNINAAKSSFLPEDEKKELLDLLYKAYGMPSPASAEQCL
Protocol: (2) Resistance to adenosine deaminase:
A solution 0.5 mM of each test sample is prepared by dissolving the test sample in 0.05 M Tris-HCl buffer (pH 7.2). Adenosine deaminase ( Calf inlestine, 400 U/ml glycerin, Boehringer 102091 ) is diluled ten times with 0.05 M Tris-HCl buffer (pH 7.2) to prepare an adenosine deaminase solulion.
0.5 ml of each sample solulion is mixed with 10 µl of adenosine deaminase solution . The mixtures are allowed to stand in a water bath at 25 °C, and 4 µl samples thereof are pipetted off after 0 and 30 minutes. The remaining sample is measured by HPLC under the following conditions. HPLC: Column : Supersher RP-18-4 Eluent : 15% methanol Flow rate : 1.0 ml/min. Temperature : 50°C

[1] = Single administration toxicity in mice; type: in vivo; details: 10 mg/kg, intra peritoneally in mice
Protocol: 2 - Fluoroneplanocin A can be applied for an anti-neoplastic agent. Amount of dosage can be determined by considering curative effect, route of administration, ages or body weight of patient, and in general 10 - 500 mg/man/day will be applied. Administration can be done by perorally or parenterally, for example intravenous injection or drop infusion or intramuscular administration.

Row | Structure (SMILES) | IC50 (L5178Y cells) [µg/mL] | growth inhibitory activity against L5178Y cells as compared with that of known neplanocin A (L5178Y cells; relative to neplanocin A) | Remaining ratio (%) 0 min. (Adenosine deaminase) [%] | decomposition by adenosine deaminase (Adenosine deaminase; after 30 minutes of incubation) | remaining at 0.5 h, 500 µM (Adenosine deaminase) [%] | death [1]
1 | Nc1nc(F)nc2c1ncn2[C@@H]1C=C(CO)[C@@H](O)[C@H]1O [2-Fluoroneplanocin A, 2-fluoroneplanocin A] | 0.06 (≈ 0.213 µM) | three times higher levels | 100 | not decomposed | 100 | No death is observed
2 | Nc1ncnc2c1ncn2[C@@H]1C=C(CO)[C@@H](O)[C@H]1O [neplanocin A, Neplanocin A] | 0.2 (≈ 0.76 µM) | – | 100 | – | 0 | –
